# Results published in US12448425B2, “Therapeutic peptides” (Board of Regents, The University of Texas System, priority 2019, dated 2025).
# Square brackets hold non-standard residues; d marks the D form. Ends that are not written are not given here. Peptide text beside a SMILES is read from it.
# Assays:
# EphB4 = molecular target: T1, EphB4 (Homo sapiens, UniProt P54760); assay: SPR binding of peptides to immobilized EphB4; settings: EphB4-coated sensor chips, 25° C.
# T1 construct: purchased R&D Systems
# T1 sequence (P54760 16-987): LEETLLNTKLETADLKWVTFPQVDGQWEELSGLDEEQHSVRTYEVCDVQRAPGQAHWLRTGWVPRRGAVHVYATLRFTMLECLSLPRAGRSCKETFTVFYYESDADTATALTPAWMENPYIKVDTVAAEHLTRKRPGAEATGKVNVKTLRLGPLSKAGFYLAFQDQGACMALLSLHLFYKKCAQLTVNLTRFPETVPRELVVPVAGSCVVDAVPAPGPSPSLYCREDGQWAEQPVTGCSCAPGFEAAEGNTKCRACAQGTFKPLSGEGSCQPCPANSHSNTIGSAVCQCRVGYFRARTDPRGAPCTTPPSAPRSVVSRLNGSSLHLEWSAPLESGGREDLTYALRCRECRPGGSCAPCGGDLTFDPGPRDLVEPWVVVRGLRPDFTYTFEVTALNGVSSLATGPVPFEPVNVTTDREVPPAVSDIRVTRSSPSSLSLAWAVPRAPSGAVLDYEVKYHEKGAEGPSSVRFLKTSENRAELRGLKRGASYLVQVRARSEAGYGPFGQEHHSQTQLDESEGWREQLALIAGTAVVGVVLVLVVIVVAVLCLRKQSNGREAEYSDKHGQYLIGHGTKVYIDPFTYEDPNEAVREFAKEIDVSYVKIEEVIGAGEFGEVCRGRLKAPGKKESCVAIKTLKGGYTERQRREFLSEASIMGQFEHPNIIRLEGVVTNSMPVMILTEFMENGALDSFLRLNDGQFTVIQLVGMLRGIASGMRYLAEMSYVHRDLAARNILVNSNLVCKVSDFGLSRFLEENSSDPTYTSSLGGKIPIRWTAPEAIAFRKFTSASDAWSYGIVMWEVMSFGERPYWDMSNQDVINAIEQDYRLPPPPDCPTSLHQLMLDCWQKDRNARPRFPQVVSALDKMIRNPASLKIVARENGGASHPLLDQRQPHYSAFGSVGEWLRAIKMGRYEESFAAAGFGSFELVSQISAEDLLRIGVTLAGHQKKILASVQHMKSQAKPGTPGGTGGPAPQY
# Procedure: Surface plasmon resonance (SPR) binding and competition assays. A stock solution of EphB4 in PBS (100 μg/mL) was diluted to 25 μg/mL with 10 mM sodium acetate buffer (pH 4.5) and immobilized to CM5 sensor chips using the amine coupling reaction according to manufacturer-provided procedures (BIACore). Briefly, the surfaces of the chips in flow cells (FC)-1 and FC-2 were activated by exposing chips to a mixture of 200 mM N-ethyl-N′-dimethylaminopropyl carbodiimide and 50 mM N-hydroxysuccinimide for 7 min. FC-1 was used as a reference surface and was directly deactivated by injecting 1 M ethanolamine at pH 8.5 for 7 min. FC-2 was injected with 25 μg/mL human or murine EphB4 followed by injection of 1 M ethanolamine to block the remaining activated ester groups on the surface. The chips were allowed to stabilize for at least 2 h in HBSEP running buffer before injection of test analytes.
# 4T1 cells = assay: 4T1 i.v. lung metastasis model; design: species or system mouse; settings: throughout these in vivo studies
# Source text: FIGS. 25A-B: Anti-metastatic activity of BIDEN-AP. (FIG. 25A) Representative photographs of lungs from different treatment groups. The normal lung tissue was stained by blue ink. (FIG. 25B) Counts of surface metastatic nodules in the lung by visual inspection. Data are expressed as mean±SD. **p<0.01 (n=10).
# BIDEN-AP was given at the same dose and the same schedule as in FIG. 24A. […] Thus, BIDEN-AP is highly anti-metastatic.
# [1] = system: EphB4 on the surface of A2780cp20 cells; assay type: cell-based, human; settings: 1 h
# Procedure: Cell-based binding assay. A2780cp20 ovarian cancer cells (1×10^6 cells/mL) were incubated with EFNB2-Fc (20 nM) and BIDEN-AP at concentrations ranging from 0 to 100 μM at 25° C. for 1 h. After washings, EFNB2-Fc bound to the cells were probed with PE-labeled anti-Fc antibody and analyzed by flow cytometry. Binding of BIDEN-AP to A2780cp20 cells was determined by its ability to displace EFNB2-Fc's binding to the tumor cells, measured by decreased PE fluorescence signal. Cells were analyzed in a Cellquest fluorocytometer (BD Bioscience, San Jose, CA). The experiments were run in duplicate.
# MDA-HGSC-1 PDX tumor = settings: mouse, in vivo
# Source text: PDX model of high grade serous ovarian carcinoma (HGSC). Under Institutional Review Board (IRB protocol PA15-0441) and IACUC approval at University of Texas, MD Anderson Cancer Center, patients with high-serous ovarian carcinoma that were being treated by at the MD Anderson Cancer Center were consented for this study. Subcutaneous HGSC-PDX model was established in 4-6 week old female Balb C athymic nude mice (Harlan Laboratories, Indianapolis, Ind.) by implanting one PDX 3×3×3 mm tumor cube (MDA-HGSOC-1 high-grade serous ovarian cancer; generation 9) at the dorsal portion of each mouse. Tumor size was monitored by caliber, and tumor volume was calculated using the formula V(cm^3)=(length×width^2)/2. Mice were randomly assigned to the PBS vehicle control or BIDEN-AP treatment group, 6 mice per group, once tumor size reached ˜100 mm^3 (21 days after implantation). PBS or BIDEN-AP was injected intraperitoneally at […] ([…]), once every other day for a total of 14 doses. At the end of the study (day 49), all mice were euthanized, and tumors were collected, weighted, and snap-frozen in optimal cutting temperature compound with liquid nitrogen, and cryosectioned into 5-μm sections for IHC staining of CD31 and Ki67 markers. […] Cell nuclei were counterstained with DAPI.
# A2780cp20 cells = assay: Internalization of Alexa647-labeled peptides (confocal microscopy); assay type: cell-based, human
# Procedure: FIGS. 2A-C: BIDEN-AP acts as an EphB4 agonist. (FIG. 2A) BIDEN-AP induced phosphorylation of EphB4 and the associated […] (Crk1). After 16 h serum starvation, A2780cp20 cells were incubated with EFNB2-Fc (20 nM), TNYL-RAW (SEQ ID NO: 12) (50 μM), or BIDEN-AP (50 μM) for 30 min or 2 h. The uncropped blots were available at Supplemental FIG. 11. (FIG. 2B) BIDEN-AP inhibited A2780cp20 cell invasion compared to untreated control (CTL). A modified Boyden transwell chamber coated with human defined matrigel was used. Experiments were performed in triplicate. Data are presented as mean±SD. ***p<0.001. (FIG. 2C) Alexa647-BIDEN-AP was internalized via receptor-mediated endocytosis. A2780cp20 cells were incubated at 37° C. with Alexa647-BIDEN-AP (0.05 μM), Alexa647-TNYL-RAW (SEQ ID NO: 12) (0.05 μM), or Alexa647-BIDEN-AP (0.05 μM) plus unlabeled TNYL-RAW (SEQ ID NO: 12) (5 μM, blocking). Alexa647-BIDEN-AP but not Alexa647-TNYL-RAW (SEQ ID NO: 12) was internalized into the A2780cp20 cells.
# A2780cp20 cells were incubated at 4° C. with Alexa647-BIDEN-AP (0.05 μM).
# Immunofluorescence imaging. A2780cp20 ovarian cancer cells (5×10^5 cells/well) were plated in 4-well chamber slides and treated with Alexa647-labeled BIDEN-AP (50 μM) for 1 h or 2 h. Cells were washed three times with 1×PBS and fixed in freshly prepared fixative containing 3.7% formaldehyde, 0.05% glutaraldehyde, and 0.4% Triton-X-100 in PHEMO buffer (0.068 M PIPES, 0.025 M HEPES, 0.015 M EGTA, 0.003 M MgCl2, and 10% ov/v dimethylsufoxide [DMSO]) for 10 min at room temperature. LysoTracker Green (Cat. L7526; Invitrogen, Carlsbad, CA) was used as a marker of lysosome. The nucleus was stained with Hoechst 33342 (300 nM) at room temperature for 10 min before mounting in Gel Mount mounting medium (Vector Laboratories, Burlingame, CA). Fixed and immunofluorescence-stained cells were imaged using a Zeiss LSM510 Meta laser scanning confocal system (Zeiss, Dublin, CA) configured to a Zeiss Axioplan 2 upright microscope with a CFI Plan Apo Lambda 20× objective lens. Images were obtained from three independent biological replicates.
# [2] = Zhang et al., 2011b; cited from earlier work
compound,measurement,setting,value
CC[C@H](C)[C@H](NC(=O)[C@@H]1CCCN1C(=O)CNC(=O)[C@H](CC(N)=O)NC(=O)[C@@H]1CCCN1C(=O)[C@@H](CO)NC(=O)[C@H](Cc1ccccc1)NC(=O)[C@H](CC(C)C)NC(=O)[C@H](Cc1ccc(O)cc1)NC(=O)[C@H](CC(N)=O)NC(=O)[C@@H](N)[C@@H](C)O)C(=O)N[C@@H](C)C(=O)N[C@@H](CCCNC(=N)N)C(=O)N[C@@H](C)C(=O)N[C@@H](Cc1c[nH]c2ccccc12)C(N)=O [B4-006] (H-TNYLF[dS]PNGPIARAW-NH2),Kd,EphB4,> 1000 nM
CC[C@H](C)[C@H](NC(=O)[C@@H]1CCCN1C(=O)CNC(=O)[C@H](CC(N)=O)NC(=O)[C@@H]1CCCN1C(=O)[C@H](CO)NC(=O)[C@H](Cc1ccccc1)NC(=O)[C@H](CC(C)C)NC(=O)[C@@H](Cc1ccc(O)cc1)NC(=O)[C@H](CC(N)=O)NC(=O)[C@@H](N)[C@@H](C)O)C(=O)N[C@@H](C)C(=O)N[C@@H](CCCNC(=N)N)C(=O)N[C@@H](C)C(=O)N[C@@H](Cc1c[nH]c2ccccc12)C(N)=O [BIDEN-AP] (H-TN[dY]LFSPNGPIARAW-NH2; C-terminus assumed),"tolerability (treatment-related death, body weight)",4T1 cells,no cases of treatment-related death or change in body weight
same,IC50,[1],~1000 nM
same,body weight change vs control group,MDA-HGSC-1 PDX tumor,did not result in body weight change
"Alexa647-BIDEN-AP: BIDEN-AP coupled with Alexa647-NHS (TN[dY]LFSPNGPIARAW; also: Alexa647 label, site not given here)",cellular internalization at 37° C.,A2780cp20 cells,readily internalized
same,internalization in presence of excess unlabeled TNYL-RAW,"A2780cp20 cells; 37° C., blocking",blocked
"Alexa647-TNYL-RAW: TNYL-RAW coupled with Alexa647-NHS (TNYLRAW; also: Alexa647 label, site not given here) [reference compound]",cellular internalization at 37° C.,A2780cp20 cells,excluded
TNYLFSPNGPIARAW-NH2 (C-terminus assumed) [TNYL-RAW],area-under-the time curve [AUC],[2],29.1 % ID h/mL
YSA-TNYL-RAW-dimer [B4-003],Kd,EphB4,21 nM
